These results are taken from patent US11214803B2, “Modulators of YAP1 expression” (Ionis Pharmaceuticals, Inc., priority 2019, dated 2022).

This data set concerns Yap1 mRNA. As to the kind of experiment: Antisense inhibition of human Yap1 in A-431 cells by cEt gapmers, single dose (Example 4, RTS4814). Format: cell-based. Here is the method: Modified oligonucleotides were designed to target a Yap1 nucleic acid and were tested for their effect on Yap1 mRNA level in vitro. The modified oligonucleotides were tested in a series of experiments that had similar culture conditions. Cultured A-431 cells at a density of 5,000 cells per well were treated using free uptake with 2,000 nM of modified oligonucleotide. After a treatment period of approximately 48 hours, RNA was isolated from the cells and Yap1 mRNA levels were measured by quantitative real-time RTPCR. Human primer probe set RTS4814 was used to measure mRNA levels. Yap1 mRNA levels were normalized to total RNA content, as measured by RIBOGREEN®. Results are presented in the tables below as percent control of the amount of Yap1 mRNA relative to untreated control cells (% UTC). The modified oligonucleotides with percent control values marked with an asterisk (*) target the amplicon region of the primer probe set. Additional assays may be used to measure the potency and efficacy of the modified oligonucleotides targeting the amplicon region.
The newly designed modified oligonucleotides in the Tables below were designed as 3-10-3 cEt gapmers. The gapmers are 16 nucleosides in length, wherein the central gap segment comprises of ten 2′-deoxynucleosides and is flanked by wing segments on the 5′ direction and the 3′ direction comprising three nucleosides each. Each nucleoside in the 5′ wing segment and each nucleoside in the 3′ wing segment has a cEt sugar modification. The internucleoside linkages throughout each gapmer are phosphorothioate (P═S) linkages. All cytosine residues throughout each gapmer are 5-methylcytosines.
“Start site” indicates the 5′-most nucleoside to which the gapmer is targeted in the human gene sequence. “Stop site” indicates the 3′-most nucleoside to which the gapmer is targeted human gene sequence. […] Activity of the modified oligonucleotide may be defined in a different experiment.

The mark [1] stands for this setting: Table 17, A-431 cells, 5,000 cells per well, free uptake, 2,000 nM, approximately 48 hours, RTS4814, normalized to RIBOGREEN, Yap1 mRNA relative to untreated control cells.
Setting [2] is: Yap1 mRNA remaining as percent of untreated control, 3-10-3 cEt gapmers, A-431 cells, Table 36.
Where [3] appears, read: Table 14, A-431 cells, 5,000 cells per well, free uptake, 2,000 nM, approximately 48 hours, RTS4814, normalized to RIBOGREEN, Yap1 mRNA relative to untreated control, * = targets amplicon region of primer probe set.
Where [4] appears, read: Table 16, A-431 cells, 5,000 cells per well, free uptake, 2,000 nM, approximately 48 hours, RTS4814, normalized to RIBOGREEN, Yap1 mRNA relative to untreated control cells.
Where [5] appears, read: Table 15, A-431 cells, 5,000 cells per well, free uptake, 2,000 nM, approximately 48 hours, RTS4814, normalized to RIBOGREEN, Yap1 mRNA relative to untreated control, * = targets amplicon region of primer probe set.
Where [6] appears, read: Yap1 mRNA remaining as percent of untreated control, 3-10-3 cEt gapmers, A-431 cells, Table 37.

Marks after values point to notes of the source that are not given here. Strand notation (5' to 3'): a small letter for the sugar, then the base; units joined by * are phosphorothioate-linked, units joined directly phosphodiester-linked; [ ] holds rarer units or linkages, { } end groups; capitals alone tell only the bases. k = constrained ethyl (cEt); [5mC] = 5-methylcytosine; d = 2'-deoxy (DNA)

As for “1075363 (kA*k[5mC]*kA*d[5mC]*dA*dA*dT*dA*dT*d[5mC]*dA*dA*dG*kT*k[5mC]*k[5mC]; antisense) [Compound 1075363]”, under setting [1], the “YAP1 (% UTC)” value is listed as 25 % UTC.
On to “1074422 (kA*kA*kA*d[5mC]*dA*dG*dG*d[5mC]*dT*d[5mC]*dA*d[5mC]*dT*kT*k[5mC]*k[5mC]; antisense) [compound 1074422]”, for which, under setting [2], the “YAP1 (% UTC)” value is on record as 9* % UTC.
For the substance “1074304 (antisense k[5mC]*kT*kG*d[5mC]*d[5mC]*dG*dA*dA*dG*d[5mC]*dA*dG*dT*kT*k[5mC]*kT) [Compound 1074304]”, the “YAP1 (% UTC)” value under setting [3] is reported as 109 % UTC.
Consider “1076054 (k[5mC]*kA*kT*dT*dA*dG*dA*d[5mC]*dT*dT*dT*d[5mC]*dT*kG*kT*k[5mC]; antisense) [compound 1076054]”, for which the “YAP1 (% UTC)” value under setting [2] worked out at 21 % UTC.
As for “1074339 (antisense kA*k[5mC]*kT*dG*dG*dA*dT*dT*dT*dT*dG*dA*dG*kT*k[5mC]*k[5mC]) [Compound 1074339]”, under setting [1], the “YAP1 (% UTC)” value worked out at 31 % UTC.
Still for that read-out and setting: to “1075683 (k[5mC]*kT*kG*dA*dA*dA*dA*dA*dG*dT*dT*dA*dT*kG*k[5mC]*k[5mC]; antisense) [Compound 1075683]” belongs 56 % UTC.
The same measure, in the same setting: the value for “1075267 (antisense k[5mC]*kT*kA*dT*dT*dT*dA*dG*dA*dA*dT*dA*dA*kG*kT*kG) [Compound 1075267]” was 83 % UTC.
As for “1074338 (antisense kG*kG*kA*dT*dT*dT*dT*dG*dA*dG*dT*d[5mC]*d[5mC]*k[5mC]*kA*k[5mC]) [Compound 1074338]”, the “YAP1 (% UTC)” value under setting [4] turned out to be 77 % UTC.
Regarding “1074390 (k[5mC]*kT*kG*d[5mC]*dA*dG*dA*d[5mC]*dT*dT*dG*dG*d[5mC]*kA*kT*k[5mC]; antisense) [compound 1074390]”, under setting [2], the “YAP1 (% UTC)” value is 64 % UTC.
Same read-out and setting: the value for “1074966 (antisense kA*kT*kT*dG*dA*dA*dG*dT*dG*dT*dT*dT*dA*kG*kG*k[5mC]) [compound 1074966]” was 9 % UTC.
Regarding “1075619 (k[5mC]*kT*kT*dA*dG*dA*dT*dA*d[5mC]*dT*dA*d[5mC]*dT*kT*kT*kG; antisense) [Compound 1075619]”, under setting [1], the “YAP1 (% UTC)” value turned out to be 54 % UTC.
With “1074849 (kT*kG*kT*dT*dA*dT*dG*dA*dT*dA*dG*dG*d[5mC]*kA*k[5mC]*kA; antisense) [Compound 1074849]”, the “YAP1 (% UTC)” value under setting [5] is recorded as 18 % UTC.
“1075607 (antisense kA*kA*kA*dA*d[5mC]*dG*dG*dT*dG*dT*dG*dA*dA*kG*kA*kA) [compound 1075607]”: the “YAP1 (% UTC)” value under setting [6] is reported as 45 % UTC.
Same read-out and setting: to “1074455 (k[5mC]*kA*kT*dT*dA*dT*dG*dT*dG*dA*d[5mC]*dT*dA*kA*kT*kG; antisense) [compound 1074455]” belongs 67 % UTC; to “1075255 (kA*kA*kA*dT*dA*dT*d[5mC]*d[5mC]*dG*dT*dG*dT*d[5mC]*k[5mC]*kT*k[5mC]; antisense) [compound 1075255]”, 16 % UTC.
As for “1074114 (kG*kA*kA*d[5mC]*dT*dT*dT*dT*dT*d[5mC]*d[5mC]*d[5mC]*dT*k[5mC]*k[5mC]*kA; antisense) [Compound 1074114]”, under setting [4], the “YAP1 (% UTC)” value was determined as 30 % UTC.
“1074177 (antisense k[5mC]*k[5mC]*kT*d[5mC]*d[5mC]*d[5mC]*d[5mC]*d[5mC]*dG*dA*d[5mC]*dG*d[5mC]*kG*k[5mC]*kA) [Compound 1074177]”: the “YAP1 (% UTC)” value under setting [5] amounted to 69 % UTC.
Turning to “1075266 (antisense kT*kA*kT*dT*dA*dG*dG*dA*d[5mC]*dA*dA*dA*dG*kT*kA*k[5mC]) [Compound 1075266]”, under setting [4], the “YAP1 (% UTC)” value is recorded as 57 % UTC.
Take “1074903 (antisense k[5mC]*k[5mC]*kT*dA*dT*dT*dA*dA*d[5mC]*dT*dT*dT*dT*kG*kG*kG) [compound 1074903]”: the “YAP1 (% UTC)” value under setting [6] is 87 % UTC.
Take “1074263 (antisense kA*kG*k[5mC]*d[5mC]*dG*dA*dG*dT*dT*d[5mC]*dA*dT*d[5mC]*kA*kT*kA) [compound 1074263]”: the “YAP1 (% UTC)” value under setting [6] amounted to 34 % UTC.
Regarding “1075168 (antisense k[5mC]*kA*kT*d[5mC]*dA*dA*dA*dA*dT*dT*dT*d[5mC]*dA*k[5mC]*kG*kA) [Compound 1075168]”, under setting [3], the “YAP1 (% UTC)” value was 49 % UTC.
With “1075062 (antisense k[5mC]*kT*kT*dT*dA*dA*d[5mC]*d[5mC]*dT*dT*dA*dT*dA*k[5mC]*kT*kT) [compound 1075062]”, the “YAP1 (% UTC)” value under setting [2] amounted to 58 % UTC.
Take “1075074 (antisense kT*kA*kT*dA*dG*dT*dA*dA*dG*dA*d[5mC]*dT*dA*kA*kT*k[5mC]) [Compound 1075074]”: under setting [4], the “YAP1 (% UTC)” value is recorded as 105 % UTC.
Still for that read-out and setting: the value for “1076034 (kA*kA*kT*dT*dA*dG*dA*dA*dA*d[5mC]*dT*dT*dG*kG*k[5mC]*k[5mC]; antisense) [Compound 1076034]” was 74 % UTC; that for “1075010 (antisense kA*kA*kT*dA*dA*dT*d[5mC]*dG*dA*dA*d[5mC]*dA*dT*kT*kG*kT) [Compound 1075010]” was 88 % UTC.
In the case of “1076353 (kA*kT*kT*dA*dA*dA*d[5mC]*dA*dT*dT*d[5mC]*dG*dG*kA*kT*kT; antisense) [Compound 1076353]”, under setting [5], the “YAP1 (% UTC)” value is reported as 30 % UTC.
Regarding “1075971 (kT*kA*kT*dT*dA*dA*d[5mC]*dA*dT*dA*d[5mC]*d[5mC]*dT*k[5mC]*kA*kT; antisense) [Compound 1075971]”, under setting [1], the “YAP1 (% UTC)” value came to 28 % UTC.
For “1075798 (kA*kT*kT*dT*dA*dG*dA*dT*dA*dG*dT*dT*dA*k[5mC]*kT*kG; antisense) [compound 1075798]”, the “YAP1 (% UTC)” value under setting [2] was 21 % UTC.
For the substance “1076512 (antisense k[5mC]*kA*kT*dA*dA*dA*d[5mC]*d[5mC]*dA*dT*dT*dA*dA*kG*kT*kG) [Compound 1076512]”, the “YAP1 (% UTC)” value under setting [3] was 65 % UTC.
Consider “1075425 (antisense kA*kT*kT*dA*dT*dT*dA*dA*dT*d[5mC]*d[5mC]*dT*dG*kT*k[5mC]*k[5mC]) [Compound 1075425]”, for which the “YAP1 (% UTC)” value under setting [5] is given as 26 % UTC.
Regarding “1074819 (kA*kA*kG*d[5mC]*dA*d[5mC]*dT*dG*dA*dA*dT*dA*dT*kT*kG*k[5mC]; antisense) [Compound 1074819]”, the “YAP1 (% UTC)” value under setting [1] turned out to be 33 % UTC.
On to “1076256 (kT*kT*kA*dT*dT*dT*dA*dG*dG*d[5mC]*d[5mC]*d[5mC]*d[5mC]*kA*kT*kA; antisense) [Compound 1076256]”, for which, under setting [3], the “YAP1 (% UTC)” value is 4 % UTC.
Take “1075490 (antisense k[5mC]*kA*kT*dA*dT*dA*d[5mC]*dG*d[5mC]*dA*dA*dT*dT*kA*kG*kT) [Compound 1075490]”: the “YAP1 (% UTC)” value under setting [4] was 27 % UTC.
Turning to “1076278 (kA*kA*kT*dA*dA*dG*dG*dA*d[5mC]*dA*dG*dG*dA*k[5mC]*k[5mC]*k[5mC]; antisense) [compound 1076278]”, the “YAP1 (% UTC)” value under setting [2] is listed as 29 % UTC.
Still for that read-out and setting: to “1075382 (antisense kA*kT*kT*dA*dT*dT*dA*d[5mC]*d[5mC]*d[5mC]*dT*dA*d[5mC]*kT*k[5mC]*kA) [compound 1075382]” belongs 33 % UTC.
Take “1074529 (kG*k[5mC]*kA*dG*dA*d[5mC]*dT*dG*d[5mC]*d[5mC]*d[5mC]*d[5mC]*dA*kA*k[5mC]*k[5mC]; antisense) [Compound 1074529]”: the “YAP1 (% UTC)” value under setting [5] was determined as 50 % UTC.
As for “1074870 (kG*kT*kA*dA*dG*dT*dA*d[5mC]*d[5mC]*dT*dA*dA*d[5mC]*kA*kT*kA; antisense) [compound 1074870]”, under setting [2], the “YAP1 (% UTC)” value stood at 20 % UTC.
Consider “1076161 (kT*k[5mC]*kT*dT*dA*dT*dA*d[5mC]*dT*dA*dG*dT*dA*k[5mC]*kG*kG; antisense) [Compound 1076161]”, for which the “YAP1 (% UTC)” value under setting [5] worked out at 14 % UTC.
For the substance “1074710 (antisense k[5mC]*kT*k[5mC]*dT*dA*dG*dA*dA*d[5mC]*dA*dG*d[5mC]*dT*kG*k[5mC]*k[5mC]) [compound 1074710]”, the “YAP1 (% UTC)” value under setting [2] is listed as 42 % UTC.
Turning to “1075831 (kT*kA*kT*dT*dA*dG*d[5mC]*d[5mC]*dT*dT*d[5mC]*dT*dA*kA*k[5mC]*k[5mC]; antisense) [compound 1075831]”, the “YAP1 (% UTC)” value under setting [6] came to 59 % UTC.
For “1075553 (kT*kG*kA*dT*dT*dA*dT*dA*dA*d[5mC]*dA*dT*dG*k[5mC]*kT*kG; antisense) [Compound 1075553]”, the “YAP1 (% UTC)” value under setting [5] is given as 77 % UTC.
In the case of “1076438 (kT*kA*kG*dG*dA*dA*dG*dA*dA*dT*dA*dG*d[5mC]*kA*kT*k[5mC]; antisense) [compound 1076438]”, under setting [2], the “YAP1 (% UTC)” value amounted to 13 % UTC.
